In ChEMBL document CHEMBL1828583, “Discovery process and pharmacological characterization of a novel dual orexin 1 and orexin 2 receptor antagonist useful for treatment of sleep disorders” (Bioorg Med Chem Lett, 2011):

What was measured:
Liver microsomes = assay: Intrinsic clearance in human liver microsomes; assay type: ADME, Microsome
[1] = target: T1, Orexin/Hypocretin receptor type 1 (Homo sapiens, UniProt O43613); assay: Antagonist activity at recombinant human OX1R expressed in CHO cells by FLIPR calcium based functional assay; assay type: cell-based
T1 sequence (O43613 whole entry): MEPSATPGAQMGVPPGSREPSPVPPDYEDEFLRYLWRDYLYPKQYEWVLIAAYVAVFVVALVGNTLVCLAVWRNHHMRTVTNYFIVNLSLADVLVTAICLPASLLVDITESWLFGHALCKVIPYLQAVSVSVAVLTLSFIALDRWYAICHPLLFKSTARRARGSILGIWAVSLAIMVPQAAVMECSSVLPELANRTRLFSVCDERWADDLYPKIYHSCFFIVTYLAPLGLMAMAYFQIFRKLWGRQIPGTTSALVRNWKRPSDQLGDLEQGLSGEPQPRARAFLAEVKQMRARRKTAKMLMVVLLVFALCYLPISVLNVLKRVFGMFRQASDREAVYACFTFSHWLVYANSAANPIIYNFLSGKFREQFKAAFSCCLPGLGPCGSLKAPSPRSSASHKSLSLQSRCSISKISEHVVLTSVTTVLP

Orexin receptor type 2 = target: T2, Orexin receptor type 2 (Homo sapiens, UniProt O43614); assay: Antagonist activity at recombinant human OX2R expressed in CHO cells by FLIPR calcium based functional assay; assay type: cell-based
T2 sequence (O43614 whole entry): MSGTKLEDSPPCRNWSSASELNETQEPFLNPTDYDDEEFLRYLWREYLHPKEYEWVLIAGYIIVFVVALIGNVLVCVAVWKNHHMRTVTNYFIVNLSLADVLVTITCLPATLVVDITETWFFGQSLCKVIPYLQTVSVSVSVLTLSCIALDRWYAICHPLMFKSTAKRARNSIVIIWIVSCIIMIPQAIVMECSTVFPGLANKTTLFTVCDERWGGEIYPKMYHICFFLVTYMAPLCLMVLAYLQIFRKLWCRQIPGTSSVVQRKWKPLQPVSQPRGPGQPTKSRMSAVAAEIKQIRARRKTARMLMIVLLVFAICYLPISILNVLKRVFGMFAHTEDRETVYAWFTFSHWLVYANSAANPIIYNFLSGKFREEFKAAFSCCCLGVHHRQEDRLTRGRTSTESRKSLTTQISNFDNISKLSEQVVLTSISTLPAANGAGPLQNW

| Structure (SMILES) | CL (Liver microsomes) [mL/min/g] | Ki [1] [nM] | Ki (Orexin receptor type 2) [nM] |
| --- | --- | --- | --- |
| O=C(c1ccccc1-c1ccccc1)N1CCCCC1CCOc1ccc(F)cc1 (racemic) | > 50 | 5.01 | 20 |
| N#Cc1cccc(C(=O)N2CCCCC2CCOc2ccc(Cl)c(Cl)c2)c1 (racemic) | – | 398 | 631 |
| O=C(CC[C@@H]1CCCCN1C(=O)c1ccccc1-c1ccccc1)c1ccccc1 | – | 10 | 20 |
| O=C(NC[C@H]1CCCCN1C(=O)c1ccccc1-c1ccccc1)c1ccc(F)cc1 | – | 39.8 | 31.6 |
| CN(C[C@@H]1CCCCN1C(=O)c1ccccc1-c1ccccc1)C(=O)c1ccc(F)cc1 | – | 501 | 1260 |
| O=C(c1ccccc1-c1ccccc1)N1CCCC[C@H]1CCOc1ccc(F)cc1F | – | 0.158 | 0.794 |
| O=C(c1ccc(Cl)c(Cl)c1)N1CCCCC1CCOc1ccc(Cl)c(Cl)c1 (racemic) | – | 2510 | > 3160 |
